A value given as a limit tells only on which side of the number the result lay.

What all share (assay type): biochemical
One assay deals with BTK (Homo sapiens (Human), UniProt Q06187). In words: IC50 against BTK.
A further assay has as its target JAK3 (Homo sapiens (Human), UniProt P52333). In words: IC50 against JAK3.
For the next assay, the target named is ITK (Homo sapiens (Human), UniProt Q08881). In words: IC50 against ITK.
A further assay deals with TXK (Homo sapiens (Human), UniProt P42681). In words: IC50 against TXK. The following applies: for TXK/ITK: ratio of TXK IC50 to ITK IC50.
TXK, sequence (P42681 whole entry, species assumed): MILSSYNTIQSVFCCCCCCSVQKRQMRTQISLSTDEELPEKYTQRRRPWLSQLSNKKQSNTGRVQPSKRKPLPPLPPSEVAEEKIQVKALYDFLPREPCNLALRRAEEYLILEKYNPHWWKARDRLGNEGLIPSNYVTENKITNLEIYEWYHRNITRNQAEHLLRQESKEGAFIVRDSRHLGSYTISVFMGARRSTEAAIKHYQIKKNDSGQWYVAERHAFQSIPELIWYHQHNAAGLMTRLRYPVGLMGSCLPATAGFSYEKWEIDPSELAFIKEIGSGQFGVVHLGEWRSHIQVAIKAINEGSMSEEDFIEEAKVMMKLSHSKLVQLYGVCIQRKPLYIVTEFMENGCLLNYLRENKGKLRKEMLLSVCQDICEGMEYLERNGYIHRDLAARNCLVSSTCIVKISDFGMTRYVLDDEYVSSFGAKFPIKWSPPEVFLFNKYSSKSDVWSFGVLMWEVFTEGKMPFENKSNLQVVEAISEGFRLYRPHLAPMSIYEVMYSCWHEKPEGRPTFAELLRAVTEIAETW

JAK3, sequence (P52333 whole entry, species assumed): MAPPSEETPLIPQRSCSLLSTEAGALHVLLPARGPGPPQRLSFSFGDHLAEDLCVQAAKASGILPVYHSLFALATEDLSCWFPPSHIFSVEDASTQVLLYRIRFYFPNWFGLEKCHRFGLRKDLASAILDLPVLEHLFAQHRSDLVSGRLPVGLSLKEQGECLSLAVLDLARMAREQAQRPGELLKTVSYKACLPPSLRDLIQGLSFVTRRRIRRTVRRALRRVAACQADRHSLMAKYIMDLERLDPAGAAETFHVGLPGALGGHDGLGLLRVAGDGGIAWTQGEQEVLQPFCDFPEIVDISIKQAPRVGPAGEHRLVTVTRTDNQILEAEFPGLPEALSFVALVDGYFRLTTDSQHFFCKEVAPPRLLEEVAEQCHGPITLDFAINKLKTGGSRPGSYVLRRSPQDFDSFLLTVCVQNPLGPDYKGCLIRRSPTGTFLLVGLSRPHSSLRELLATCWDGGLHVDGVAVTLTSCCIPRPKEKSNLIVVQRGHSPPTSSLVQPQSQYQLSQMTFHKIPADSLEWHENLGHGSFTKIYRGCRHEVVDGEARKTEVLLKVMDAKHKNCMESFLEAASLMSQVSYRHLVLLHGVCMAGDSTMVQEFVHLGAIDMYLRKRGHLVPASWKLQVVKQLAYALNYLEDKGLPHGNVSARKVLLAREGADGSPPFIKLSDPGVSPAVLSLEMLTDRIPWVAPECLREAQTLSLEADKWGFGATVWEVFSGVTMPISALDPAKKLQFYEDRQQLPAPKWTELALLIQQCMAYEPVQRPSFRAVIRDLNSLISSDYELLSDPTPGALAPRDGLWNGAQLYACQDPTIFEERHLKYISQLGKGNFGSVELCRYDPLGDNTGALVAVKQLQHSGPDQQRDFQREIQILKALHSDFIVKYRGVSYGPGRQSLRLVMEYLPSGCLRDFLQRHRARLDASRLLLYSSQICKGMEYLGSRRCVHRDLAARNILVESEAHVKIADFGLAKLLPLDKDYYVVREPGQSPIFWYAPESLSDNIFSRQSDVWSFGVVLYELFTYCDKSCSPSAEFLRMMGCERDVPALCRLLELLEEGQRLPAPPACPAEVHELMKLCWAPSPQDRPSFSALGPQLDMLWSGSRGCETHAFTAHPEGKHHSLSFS
ITK, sequence (Q08881 whole entry): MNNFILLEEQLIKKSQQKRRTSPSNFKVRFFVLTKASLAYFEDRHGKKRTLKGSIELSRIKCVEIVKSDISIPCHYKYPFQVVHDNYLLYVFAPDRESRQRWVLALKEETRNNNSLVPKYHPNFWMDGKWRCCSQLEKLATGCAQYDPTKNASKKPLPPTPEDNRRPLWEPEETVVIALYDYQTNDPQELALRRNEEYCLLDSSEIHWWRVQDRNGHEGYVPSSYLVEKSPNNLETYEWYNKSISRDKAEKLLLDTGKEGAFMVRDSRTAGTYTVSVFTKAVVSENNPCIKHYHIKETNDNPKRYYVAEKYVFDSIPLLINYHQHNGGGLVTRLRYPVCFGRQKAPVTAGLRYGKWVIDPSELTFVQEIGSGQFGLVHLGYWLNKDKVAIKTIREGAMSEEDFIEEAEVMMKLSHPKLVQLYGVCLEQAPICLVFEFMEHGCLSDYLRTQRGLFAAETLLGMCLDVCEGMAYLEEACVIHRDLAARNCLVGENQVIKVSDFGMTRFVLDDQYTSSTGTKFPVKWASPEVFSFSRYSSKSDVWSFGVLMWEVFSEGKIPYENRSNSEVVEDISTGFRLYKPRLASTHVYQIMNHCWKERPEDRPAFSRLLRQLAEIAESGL
BTK, sequence (Q06187 whole entry, species assumed): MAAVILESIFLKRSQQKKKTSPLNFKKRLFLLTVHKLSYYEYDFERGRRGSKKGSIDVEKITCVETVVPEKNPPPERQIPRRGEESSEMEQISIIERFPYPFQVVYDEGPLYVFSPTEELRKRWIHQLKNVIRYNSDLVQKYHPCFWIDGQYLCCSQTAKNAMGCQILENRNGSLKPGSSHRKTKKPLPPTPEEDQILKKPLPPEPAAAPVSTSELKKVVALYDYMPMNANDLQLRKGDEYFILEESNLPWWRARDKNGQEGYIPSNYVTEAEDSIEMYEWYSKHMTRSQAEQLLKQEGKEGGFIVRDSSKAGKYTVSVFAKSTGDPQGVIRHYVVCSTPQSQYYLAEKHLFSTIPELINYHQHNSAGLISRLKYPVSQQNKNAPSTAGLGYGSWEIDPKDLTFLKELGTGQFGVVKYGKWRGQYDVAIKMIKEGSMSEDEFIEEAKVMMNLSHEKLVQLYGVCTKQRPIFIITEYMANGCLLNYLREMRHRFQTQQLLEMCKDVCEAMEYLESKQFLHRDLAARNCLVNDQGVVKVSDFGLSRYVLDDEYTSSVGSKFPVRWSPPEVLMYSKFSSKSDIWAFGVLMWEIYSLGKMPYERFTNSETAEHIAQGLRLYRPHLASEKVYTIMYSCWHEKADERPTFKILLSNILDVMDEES

What is called IC50 is the midpoint of a concentration-inhibition curve. Low values mean greater potency, high ones weaker potency. As for `C=CC(=O)N1CCCN(C(=O)c2cc(Sc3cnc(NC(=O)C(C)(C)C)s3)c(C)cc2OC)CC1` [Compound 57], the IC50 against BTK is at least 10000 nM; against JAK3, at least 10000 nM; on ITK, 100 to 1000 nM; on TXK, at least 10000 nM. Moreover, the TXK/ITK on TXK was found to be 15.564.
As to `CC#CC(=O)N1CCCN(C(=O)c2cc(Sc3cnc(NC(=O)c4cccc(CN(C)C)c4)s3)c(C)cc2OC)CC1` [Compound 38], the IC50 is 1000 to 10000 nM against BTK, at least 10000 nM against JAK3, 10 to 100 nM against ITK and 1000 to 10000 nM at TXK. Moreover, the TXK/ITK at TXK is listed as 28.189.
Take `C=CC(=O)N1[C@@H]2CC[C@H]1CN(C(=O)c1cc(Sc3cnc(NC(C)=O)s3)c(C)cc1OC)C2` [Compound 8]: the concentration for half-maximal inhibition (IC50) is 10 to 100 nM against BTK, 100 to 1000 nM against JAK3, below 10 nM against ITK and 10 to 100 nM against TXK. In addition, the TXK/ITK on TXK was found to be 11.265.
For the molecule `C=CC(=O)N1CCN(C(=O)c2cc(Sc3cnc(NC(=O)C4CC4)s3)c(Cl)cc2C)CC1` [Compound 80], the half-inhibitory concentration (IC50) is 100 to 1000 nM against BTK, 10 to 100 nM at JAK3, below 10 nM against ITK and 10 to 100 nM against TXK. Besides, the TXK/ITK at TXK came to 8.1619.
Regarding `C=CC(=O)N1CCCN(C(=O)c2cc(C)c(C)c(Sc3cnc(NC(=O)C4CC4)s3)c2)C[C@H]1C` [Compound 64], the IC50 at BTK was at least 10000 nM; at JAK3, at least 10000 nM; against ITK, 100 to 1000 nM; on TXK it was 1000 to 10000 nM. The TXK/ITK on TXK came out at 11.944.
Turning to `C=C(CN(C)C)C(=O)N1CCN(C(=O)c2cc(Sc3cnc(NC(=O)C4CC4)s3)c(C)cc2OC)CC1` [Compound 13], the IC50 at BTK lay in the range of 1000 to 10000 nM; against JAK3, 1000 to 10000 nM; on ITK, 10 to 100 nM; against TXK it was 100 to 1000 nM. The TXK/ITK on TXK was 22.987.
Take `C=CC(=O)N1CCCN(C(=O)c2cc(Sc3cnc(NC(=O)C4CC4)s3)c(C)cc2C)C[C@H]1CC` [Compound 112]: the 50% inhibitory concentration (IC50) against BTK was 100 to 1000 nM; on JAK3, 1000 to 10000 nM; at ITK, below 10 nM; against TXK it was 100 to 1000 nM. For the same molecule, on TXK, the TXK/ITK was determined as 118.0.
Consider `C=CC(=O)N1CCCN(C(=O)c2cc(Sc3cnc(NC(C)=O)s3)c(C)cc2OC)CC1` [Compound 26], for which the IC50 at BTK was in the range of 1000 to 10000 nM; against JAK3, 1000 to 10000 nM; against ITK it was 10 to 100 nM; on TXK, 100 to 1000 nM. At TXK, the TXK/ITK is recorded as 26.486.
Regarding `C=CC(=O)N1CCN(C(=O)c2cc(Sc3cnc(NC(=O)c4cccc(CN(C)C)c4)s3)c(C)cc2OC)C[C@H]1C` [Compound 32], the IC50 against BTK is 100 to 1000 nM; against JAK3, 1000 to 10000 nM; against ITK, below 10 nM; on TXK, 100 to 1000 nM. On TXK, the TXK/ITK is reported as 81.114.
On to `C=CC(=O)N1CCN(C(=O)c2cc(Sc3cnc(NC(=O)c4cnn(CCN(C)C)c4)s3)c(C)cc2OC)C[C@H]1CC` [Compound 116], for which the IC50 against BTK is 100 to 1000 nM; against JAK3 it was 1000 to 10000 nM; against ITK it was below 10 nM; at TXK it was 10 to 100 nM. In addition, at TXK, the TXK/ITK is given as 23.3.
On to `C=CC(=O)N1CCN(C(=O)c2cc(Sc3cnc(NC(C)=O)s3)c(C)cc2OC)CC1(C)C` [Compound 6], for which the IC50 was in the range of 1000 to 10000 nM on BTK, 1000 to 10000 nM against JAK3, 10 to 100 nM against ITK and 100 to 1000 nM on TXK. At TXK, the TXK/ITK is listed as 5.9566.
Turning to `C=CC(=O)N1CCN(C(=O)c2cc(Sc3cnc(NC(=O)c4ccc(CN(C)C)cc4)s3)c(C)cc2OC)CC1` [Compound 34], the IC50 at BTK was 10 to 100 nM; against JAK3, 100 to 1000 nM; against ITK it was below 10 nM; against TXK, 10 to 100 nM. The TXK/ITK at TXK was 33.121.
As to `C=CC(=O)N1CCCN(C(=O)c2cc(Sc3cnc(NC(=O)c4ccsc4)s3)c(C)cc2C)C[C@H]1CC` [Compound 122], the IC50 against BTK is 100 to 1000 nM; against JAK3, 100 to 1000 nM; against ITK, below 10 nM; against TXK, 100 to 1000 nM. In addition, the TXK/ITK on TXK came out at 118.5.
With `C=CC(=O)N1CCN(C(=O)c2cc(Sc3cnc(NC(=O)c4ccsc4)s3)c(C)cc2OC)C(C)(C)C1` [Compound 142, N-(5-((5-(4-acryloyl-2,2-dimethylpiperazine-1-carbonyl)-4-methoxy-2-methylphenyl)thio)thiazol-2-yl)thiophene-3-carboxamide], the IC50 against BTK, against JAK3, on ITK and on TXK was below 10 nM in each case. Moreover, on TXK, the TXK/ITK was 1.00.
`C=CC(=O)N1CCN(C(=O)c2cc(Sc3cnc(Nc4ccccn4)s3)c(C)cc2OC)CC1` [Compound 98]: the IC50 on BTK is below 10 nM; on JAK3, 10 to 100 nM; against ITK, below 10 nM; at TXK it was below 10 nM. Moreover, on TXK, the TXK/ITK worked out at 8.2157.
On to `C=CC(=O)N1CCN(C(=O)c2cc(Sc3cnc(NC(=O)C4CC4)s3)c(C)cc2OC)[C@H](C)C1` [Compound 20], for which the IC50 at BTK is 100 to 1000 nM; against JAK3, 100 to 1000 nM; against ITK, below 10 nM; against TXK, 10 to 100 nM. For the same molecule, at TXK, the TXK/ITK was found to be 2.2433.
Regarding `C=CC(=O)N1CCCN(C(=O)c2cc(Sc3cnc(NC(=O)C4CC4)s3)c(C)cc2Cl)C[C@H]1C` [Compound 61], the IC50 at BTK is at least 10000 nM; on JAK3 it was 1000 to 10000 nM; on ITK it was 10 to 100 nM; at TXK, 100 to 1000 nM. Also, on TXK, the TXK/ITK was determined as 50.716.
For `C=CC(=O)N1CCCN(C(=O)c2cc(Sc3cnc(NC(=O)CC)s3)c(C)cc2OC)C[C@H]1C` [Compound 47] the same measures were at least 10000 nM, at least 10000 nM, 10 to 100 nM, at least 10000 nM and 181.42.
For `C=CC(=O)N1CCN(C(=O)c2cc(Sc3cnc(Nc4ncc(C)cc4C)s3)c(C)cc2C)CC1` [Compound 138] the same measures were 100 to 1000 nM, 100 to 1000 nM, 10 to 100 nM, 10 to 100 nM and 3.29.
For `C=CC(=O)N1CCN(C(=O)c2cc(Sc3cnc(NC(=O)C4CC4)s3)c(Cl)cc2C)C[C@H]1CC` [Compound 101] the same measures were at least 10000 nM, 100 to 1000 nM, 10 to 100 nM, 100 to 1000 nM and 14.4.
`C=CC(=O)N1C[C@H]2CN(C(=O)c3cc(Sc4cnc(NC(=O)C5CC5)s4)c(C)cc3OC)C[C@H]21` [Compound 52]: the IC50 against JAK3 was 1000 to 10000 nM; at ITK, below 10 nM; against TXK it was 10 to 100 nM.
With `C=CC(=O)N1CCCN(C(=O)c2cc(Sc3cnc(NC(=O)C4CC4)s3)c(C)cc2OC)C[C@@H]1C` [Compound 71], the figures for the IC50 on BTK, against JAK3 and against TXK were 1000 to 10000 nM, 1000 to 10000 nM and 100 to 1000 nM, respectively.
Regarding `C=CC(=O)N1CCN(C(=O)c2cc(Sc3cnc(NC(=O)C4CC4)s3)c(C)cc2C)C[C@H]1C` [Compound 75], the results for the IC50 at JAK3, at ITK and at TXK were 100 to 1000 nM, below 10 nM and 10 to 100 nM, respectively.

The record behind these values is patent US11008314B2, “Compounds and methods for modulating interleukin-2-inducible t-cell kinase” (CORVUS PHARMACEUTICALS, INC., priority 2016, dated 2021).
